Read-outs that look alike come from different tables or passages of the source.
Tests used:
Assay type in all cases: in vivo
Avena fatua (AVEFA) [1] = assay: Pre-emergence herbicidal action against AVEFA; details: 320 g/ha, visual scoring after about 3 weeks vs untreated controls
Procedure, shortened: (§1)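 Pre-emergence soil-surface spray, WP/EC formulation, 0.5% additive, 600 l/ha water, rates of 320 g/ha or lower. Greenhouse, ~3 wk. Visual score, % of untreated control (100% = plants dead, 0% = like control).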

Zea mays (ZEAMX) [2] = details: pre-emergence, 80 g/ha, crop plant compatibility, in comparison to untreated controls
Procedure, shortened: (§2)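 Crop injury rated visually in percent against untreated plants roughly 3 weeks after treatment (0% no effect, 100% plants dead). Compounds, as WP or EC with 0.5% additive in 600 l/ha water, were applied to the covering soil right after sowing; greenhouse growth. Suffixes a, b, c denote different dosages.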

Setaria viridis (SETVI) [3] = assay: Post-emergence herbicidal action against SETVI
Procedure, shortened: (§3)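 Post-emergence greenhouse spray, one-leaf stage, 600 l/ha water plus 0.5% additive; WP or EC formulations; application rates 320 g/ha or lower. Visual % damage vs untreated controls at ~3 weeks.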

[4] = test system: Polygonum convolvulus (POLCO); assay: Pre-emergence herbicidal action against POLCO; details: dosage 320 g/ha
Procedure, shortened: as §1

[5] = test system: Digitaria sanguinalis (DIGSA); assay: Post-emergence herbicidal action against DIGSA; details: visual rating about 3 weeks after treatment
Procedure, shortened: as §3

[6] = test system: Matricaria inodora (MATIN); assay: Pre-emergence herbicidal action against MATIN; details: dosage 320 g/ha
Procedure, shortened: as §1

[7] = test system: Pharbitis purpurea (PHBPU); assay: Post-emergence herbicidal action against PHBPU
Procedure, shortened: as §3

Viola tricolor (VIOTR) [8] = assay: Post-emergence herbicidal action against VIOTR
Procedure, shortened: as §3

[9] = test system: Alopecurus myosuroides (ALOMY); assay: Post-emergence herbicidal action against ALOMY; details: visual rating about 3 weeks after treatment vs untreated controls (100% = plants have died, 0% = like control plants)
Procedure, shortened: as §3

[10] = test system: Amaranthus retroflexus (AMARE); assay: Pre-emergence herbicidal action against AMARE; details: visual scoring after about 3 weeks vs untreated controls
Procedure, shortened: as §1

[11] = test system: Polygonum convolvulus (POLCO); assay: Post-emergence herbicidal action against POLCO
Procedure, shortened: as §3

[12] = test system: Alopecurus myosuroides (ALOMY); assay: Pre-emergence herbicidal action against ALOMY; details: scored visually after about 3 weeks, 100% = plants have died
Procedure, shortened: as §1

[13] = test system: Pharbitis purpurea (PHBPU); assay: Pre-emergence herbicidal action against PHBPU; details: dosage 320 g/ha
Procedure, shortened: as §1

[14] = test system: Verconica persica (VERPE); assay: Post-emergence herbicidal action against VERPE
Procedure, shortened: as §3

[15] = test system: Echinochloa crus-galli (ECHCG); assay: Pre-emergence herbicidal action against ECHCG; details: dosage 320 g/ha
Procedure, shortened: as §1

[16] = test system: Echinochloa crus-galli (ECHCG); assay: Post-emergence herbicidal action against ECHCG
Procedure, shortened: as §3

Lolium rigidum (LOLRI) [17] = assay: Pre-emergence herbicidal action against LOLRI
Procedure, shortened: as §1

Lolium rigidum (LOLRI) [18] = assay: Post-emergence herbicidal action against LOLRI
Procedure, shortened: as §3

Setaria viridis (SETVI) [19] = assay: Pre-emergence herbicidal action against SETVI; details: dosage 320 g/ha
Procedure, shortened: as §1

[20] = test system: Digitaria sanguinalis (DIGSA); assay: Pre-emergence herbicidal action against DIGSA
Procedure, shortened: as §1

Oryza sativa (ORYSA) [21] = details: crop plant compatibility
Procedure, shortened: (§4)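 Greenhouse crops in sandy loam sprayed post-emergence at the one-leaf stage, 2–3 weeks after sowing, with WP or EC formulations in water plus 0.5% additive at 600 l/ha. Damage rated visually about 3 weeks later versus untreated controls (0% = like control, 100% = dead); suffixes a–c denote different doses.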

[22] = test system: Amaranthus retroflexus (AMARE); assay: Post-emergence herbicidal action against AMARE
Procedure, shortened: as §3

[23] = test system: Verconica persica (VERPE); assay: Pre-emergence herbicidal action against VERPE; details: dosage 320 g/ha
Procedure, shortened: as §1

[24] = test system: Matricaria inodora (MATIN); assay: Post-emergence herbicidal action against MATIN; details: dosage 320 g/ha
Procedure, shortened: as §3

Zea mays (ZEAMX) [25] = test system: Zea mays (ZEAMX)
Procedure, shortened: as §4

[26] = test system: Triticum aestivum (TRZAS); details: crop plant compatibility, 80 g/ha, effect vs untreated controls
Procedure, shortened: as §4

Oryza sativa (ORYSA) [27] = details: pre-emergence, 80 g/ha, crop plant compatibility, in comparison to untreated controls
Procedure, shortened: as §2

Avena fatua (AVEFA) [28] = assay: Post-emergence herbicidal action against AVEFA; details: 80 g/ha, visual rating about 3 weeks after treatment
Procedure, shortened: as §3

Viola tricolor (VIOTR) [29] = assay: Pre-emergence herbicidal action against VIOTR; details: 320 g/ha, Viola tricolor
Procedure, shortened: as §1

[30] = 80 g/ha, effect in comparison to untreated controls
[31] = 80 g/ha, visual rating about 3 weeks after treatment vs untreated controls (100% = plants have died, 0% = like control plants)
[32] = 320 g/ha, visual rating about 3 weeks after treatment

Pre-emergence action against ZEAMX in % (Zea mays (ZEAMX) [2]) [%] | Post-emergence action against ORYSA in % (Oryza sativa (ORYSA) [21]; [30]) [%] | SMILES | Pre-emergence action against AVEFA in % (Avena fatua (AVEFA) [1]) [%] | Pre-emergence action against POLCO in % [4] [%] | Pre-emergence action against MATIN in % [6] [%] | Post-emergence action against VIOTR in % (Viola tricolor (VIOTR) [8]; 320 g/ha) [%] | Pre-emergence action against AMARE in % ([10]; 80 g/ha) [%] | Pre-emergence action against AMARE in % ([10]; 320 g/ha) [%] | Pre-emergence action against ALOMY ([12]; 80 g/ha) [%] | Pre-emergence action against ALOMY ([12]; 320 g/ha) [%] | Post-emergence action against VERPE in % ([14]; 320 g/ha, VERPE) [%] | Pre-emergence action against ECHCG in % [15] [%] | Pre-emergence action against LOLRI in % (Lolium rigidum (LOLRI) [17]; dosage 320 g/ha) [%] | Pre-emergence action against SETVI in % (Setaria viridis (SETVI) [19]) [%] | Pre-emergence action against DIGSA in % ([20]; dosage 320 g/ha) [%] | Post-emergence action against AMARE in % [22, 31] [%] | Post-emergence action against AMARE in % [22, 32] [%] | other results
20 | 10 | COC(=O)CCOC(=O)COc1nn(-c2ccccn2)c(-c2ccc(F)nc2)c1Br [Example I-247] | 80 | 90 | 90 | 80 | 80 | 100 | 80 | 100 | 80 | 100 | 100 | 100 | 100 | 80 | 80 | Post-emergence action against SETVI in % (Setaria viridis (SETVI) [3]; dosage 320 g/ha): 80%; Post-emergence action against DIGSA in % ([5]; 80 g/ha): 80%; Post-emergence action against DIGSA in % ([5]; 320 g/ha): 80%; Post-emergence action against PHBPU in % ([7]; dosage 80 g/ha): 90%; Post-emergence action against PHBPU in % ([7]; dosage 320 g/ha): 90%; Post-emergence action against VIOTR in % (Viola tricolor (VIOTR) [8]; 80 g/ha): 80%; Post-emergence action against ALOMY in % ([9]; 320 g/ha): 80%; Post-emergence action against POLCO in % ([11]; dosage 80 g/ha): 80%; Post-emergence action against POLCO in % ([11]; dosage 320 g/ha): 80%; Pre-emergence action against PHBPU in % [13]: 80%; Post-emergence action against VERPE in % ([14]; dosage 80 g/ha): 80%; Post-emergence action against ECHCG in % ([16]; dosage 80 g/ha): 80%; Post-emergence action against ECHCG in % ([16]; dosage 320 g/ha): 80%; Post-emergence action against LOLRI in % (Lolium rigidum (LOLRI) [18]; dosage 320 g/ha): 80%; Pre-emergence action against DIGSA in % ([20]; 80 g/ha, visual scoring after about 3 weeks vs untreated controls): 100%; Pre-emergence action against VERPE in % [23]: 90%
10 | 0 | COC(=O)CCOC(=O)COc1nn(-c2ccccn2)c(-c2ccc(Cl)nc2)c1Cl [Example I-243] |  |  |  | 80 | 80 | 90 |  |  | 80 |  |  |  | 80 |  | 80 | Post-emergence action against MATIN in % [24]: 80%; Post-emergence action against ZEAMX in % (Zea mays (ZEAMX) [25]; crop plant compatibility, 80 g/ha, effect vs untreated controls): 0%; Post-emergence action against TRZAS in % [26]: 20%; Post-emergence action against ORYSA in % (Oryza sativa (ORYSA) [21]; 320 g/ha, effect in comparison to untreated controls): 10%
 | 10 | CCOC(=O)C(C)Oc1nn(-c2ccccn2)c(-c2ccc(F)nc2)c1C(F)(F)F (centres unmarked) [Example I-107] | 80 | 80 | 90 |  |  | 100 | 90 | 90 |  | 100 | 100 | 100 |  | 80 |  | Pre-emergence action against ORYSA in % (Oryza sativa (ORYSA) [27]): 10%; Post-emergence action against AVEFA in % (Avena fatua (AVEFA) [28]): 90%; Post-emergence action against SETVI in % (Setaria viridis (SETVI) [3]; dosage 80 g/ha): 80%; Post-emergence action against ALOMY in % ([9]; 80 g/ha): 90%; Pre-emergence action against VIOTR in % (Viola tricolor (VIOTR) [29]): 100%; Pre-emergence action against LOLRI in % (Lolium rigidum (LOLRI) [17]; dosage 80 g/ha): 80%; Post-emergence action against LOLRI in % (Lolium rigidum (LOLRI) [18]; dosage 80 g/ha): 80%; Post-emergence action against ZEAMX in % (crop plant compatibility) (Zea mays (ZEAMX) [25]; 20 g/ha, ZEAMX, effect in comparison to untreated controls): 20%; Post-emergence action against ORYSA in % (Oryza sativa (ORYSA) [21]; 20 g/ha, effect vs untreated controls): 0%
